In one assay the target is T1, Acetylcholinesterase (Rattus norvegicus, UniProt P37136).
T1 sequence (P37136 whole entry): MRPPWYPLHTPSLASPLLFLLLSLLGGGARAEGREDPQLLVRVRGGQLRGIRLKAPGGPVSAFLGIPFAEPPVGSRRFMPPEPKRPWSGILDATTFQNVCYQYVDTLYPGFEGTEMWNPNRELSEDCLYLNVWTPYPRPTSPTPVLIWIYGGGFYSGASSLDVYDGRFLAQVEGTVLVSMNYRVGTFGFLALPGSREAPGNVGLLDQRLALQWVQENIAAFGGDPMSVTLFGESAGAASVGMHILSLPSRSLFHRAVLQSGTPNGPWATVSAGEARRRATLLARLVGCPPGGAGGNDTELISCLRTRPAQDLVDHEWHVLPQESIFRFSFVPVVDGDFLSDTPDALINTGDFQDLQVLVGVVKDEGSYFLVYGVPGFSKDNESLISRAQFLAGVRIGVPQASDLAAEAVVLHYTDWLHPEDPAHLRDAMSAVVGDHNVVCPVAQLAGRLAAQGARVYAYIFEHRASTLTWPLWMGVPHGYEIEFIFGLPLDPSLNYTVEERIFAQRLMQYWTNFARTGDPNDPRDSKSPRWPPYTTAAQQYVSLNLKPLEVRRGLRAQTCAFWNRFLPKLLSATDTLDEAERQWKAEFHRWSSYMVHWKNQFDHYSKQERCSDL
The assay can be described thus: Inhibitory concentration against acetylcholinesterase of rat cortex homogenate.

In the next assay the target is Butyrylcholinesterase (Rattus norvegicus, UniProt Q9JKC1). The assay can be described thus: Inhibitory concentration against butyrylcholinesterase of rat serum.
Butyrylcholinesterase, sequence (Q9JKC1 whole entry): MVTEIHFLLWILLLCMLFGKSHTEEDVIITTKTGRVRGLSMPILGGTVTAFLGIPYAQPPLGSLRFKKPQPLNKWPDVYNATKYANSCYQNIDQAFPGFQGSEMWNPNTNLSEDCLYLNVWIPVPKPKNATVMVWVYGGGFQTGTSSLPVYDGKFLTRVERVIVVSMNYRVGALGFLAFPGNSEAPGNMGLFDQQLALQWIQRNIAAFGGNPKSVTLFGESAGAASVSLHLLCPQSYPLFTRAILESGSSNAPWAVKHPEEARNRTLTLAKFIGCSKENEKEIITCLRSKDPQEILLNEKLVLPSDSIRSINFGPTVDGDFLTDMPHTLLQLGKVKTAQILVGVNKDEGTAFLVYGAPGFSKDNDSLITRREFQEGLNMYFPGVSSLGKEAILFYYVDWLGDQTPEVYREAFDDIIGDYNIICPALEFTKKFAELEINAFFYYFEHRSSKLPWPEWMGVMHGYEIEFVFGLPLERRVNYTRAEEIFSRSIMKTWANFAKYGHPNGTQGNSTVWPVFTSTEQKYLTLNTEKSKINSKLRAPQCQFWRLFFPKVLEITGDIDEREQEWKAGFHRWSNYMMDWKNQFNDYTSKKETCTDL

As usually defined, the IC50 is the concentration that inhibits the measured activity by half. A low value points to higher potency.

As to `CC1=CC2Cc3[nH]c(=O)ccc3[C@@]3(C1)[C@@H]2CCCN3C(=O)CCN(C)CCCCCCN(C)CCC(=O)N1CCC[C@@H]2C3C=C(C)C[C@]21c1ccc(=O)[nH]c1C3`, the IC50 against Acetylcholinesterase worked out at 0.0359 µM; against Butyrylcholinesterase it was 67.9 µM.
As to `CC1=CC2Cc3[nH]c(=O)ccc3[C@@]3(C1)[C@@H]2CCCN3C(=O)CN(C)CCCCCCCCN(C)CC(=O)N1CCC[C@@H]2C3C=C(C)C[C@]21c1ccc(=O)[nH]c1C3`, the IC50 was found to be 0.0508 µM on Acetylcholinesterase and 65.4 µM against Butyrylcholinesterase.
Take `CC1=CC2Cc3[nH]c(=O)ccc3[C@@]3(C1)[C@@H]2CCCN3C(=O)CN(C)CCN(C)CC(=O)N1CCC[C@@H]2C3C=C(C)C[C@]21c1ccc(=O)[nH]c1C3` [BIS(8)-HUPERZINE B]: at Acetylcholinesterase, half-maximal inhibition (IC50) was put at 1.02 µM.
Consider `CC1=CC2Cc3[nH]c(=O)ccc3[C@@]3(C1)[C@@H]2CCCN3C(=O)CN(C)CCCN(C)CC(=O)N1CCC[C@@H]2C3C=C(C)C[C@]21c1ccc(=O)[nH]c1C3` [BIS(9)-HUPERZINE B], for which the IC50 worked out at 0.471 µM against Acetylcholinesterase and 60 µM against Butyrylcholinesterase.
With `CC1=CC2Cc3[nH]c(=O)ccc3[C@@]3(C1)[C@@H]2CCCN3C(=O)CN(C)CCCCCCN(C)CC(=O)N1CCC[C@@H]2C3C=C(C)C[C@]21c1ccc(=O)[nH]c1C3` [BIS(12)-HUPERZINE B], the IC50 against Acetylcholinesterase amounted to 0.0762 µM; against Butyrylcholinesterase, 64.5 µM.
Regarding `CC1=CC2Cc3[nH]c(=O)ccc3[C@@]3(C1)[C@@H]2CCCN3C(=O)CCN(C)CCCCCCCCN(C)CCC(=O)N1CCC[C@@H]2C3C=C(C)C[C@]21c1ccc(=O)[nH]c1C3` [BIS(16)-HUPERZINE B], the IC50 stood at 0.0185 µM on Acetylcholinesterase and 63 µM against Butyrylcholinesterase.
As for `CC1=CC2Cc3[nH]c(=O)ccc3[C@@]3(C1)[C@@H]2CCCN3C(=O)CCN(C)CCCCCCCCCCN(C)CCC(=O)N1CCC[C@@H]2C3C=C(C)C[C@]21c1ccc(=O)[nH]c1C3` [BIS(18)-HUPERZINE B], the IC50 at Acetylcholinesterase turned out to be 0.00493 µM; on Butyrylcholinesterase, 54.3 µM.
As for `CC1=CC2Cc3[nH]c(=O)ccc3[C@@]3(C1)[C@@H]2CCCN3C(=O)CCN(C)CCCCCCCCCCCCN(C)CCC(=O)N1CCC[C@@H]2C3C=C(C)C[C@]21c1ccc(=O)[nH]c1C3` [BIS(20)-HUPERZINE B], the IC50 at Acetylcholinesterase was determined as 0.0252 µM; at Butyrylcholinesterase, 88.4 µM.
On the same counts, the results for `CC1=C[C@H]2Cc3[nH]c(=O)ccc3[C@]3(C1)NCCC[C@H]23` [HUPERZINE B] are 19.3 µM and 227 µM.

The record behind these values is ChEMBL document CHEMBL1141877 (J Med Chem, 2005).
